# Experiments:
# EcRecA [1] = target: T1, EcRecA (Escherichia coli, UniProt P0A7G6); settings: gel shift; 0, 10, 100 μM
# EcRecA [2] = target: T1, EcRecA; settings: in presence of ATPγS
# Experimental: EcRecA (5 μM) was incubated with indicated concentrations of 4,4-Fe-PcTs or 3,4-Cu-PcTs in strand exchange buffer (2 mM ATP-γ-S(Sigma-Aldrich), 10 mM MgAc2, 100 mM KAc, 50 mM Hepes-Tris buffer at pH 7.6, 0.1% v/v 2-mercaptoethanol) for 10 minutes at 37° C. FAM43 (0.35 μM) was added and the reaction was incubated for 2 minutes. The reaction was started by the addition of 0.35 μM of the dsDNA substrate (annealing product of equimolar oligonucleotides 45A and 55A). The reaction was stopped at 30 minutes by adding EDTA to a final concentration of 20 mM and trypsin to a final concentration of 1 μg/μl. After 10 minutes, 10 μl of the reaction was mixed with 5 μl of loading buffer (30% glycerol and 0.1% bromophenol blue) and products were resolved using a 20% native acrylamide gel. The fluorescence emission in the gel was recorded using a Kodak GelLogic 200 system.
# EcRecA [3] = target: T1, EcRecA; settings: gel shift; 0, 10, 100 μM; remark: listed apart in the source
# Experimental: EcRecA (4 μM), a 1.0-kb double-stranded DNA (dsDNA) PCR product (12 μM in base pairs), and indicated concentrations of 4,4-Fe-PcTs or 3,4-Cu-PcTs were incubated in binding buffer (5 mM MgAc2, 50 mM Tris-Hepes at pH 7.6) for 10 minutes at 37° C. EcRecA bound (slower migrating) and unbound dsDNA were resolved using a 1.0% agarose gel. The gel was stained with ethidium bromide and the fluorescence emission in the gel was recorded using a Kodak GelLogic 200 system.
# mouse bone marrow cells = assay: Viability of mouse bone marrow cells; format: cell-based; settings: maximum concentration tested (100 μM); 24 and 48 hours
# Text: Error bars represent the standard deviation from three independent experiments.
# E. coli ATCC25922 = assay: Filamentation assay; format: cell-based, Escherichia coli; settings: 4,4-Fe-PcTs 25 μM; CFX 40 nM; three hours
# Experimental: Overnight cultures of E. coli ATCC25922 were grown in LB at 37° C. […] The cells were stained using the standard Gram staining technique and imaged using light microscopy at 100× magnification.
# ATCC25922 cells = assay: Neutropenic murine bacterial thigh infection model; format: in vivo, Escherichia coli
# Experimental: Six-eight week-old, specific-pathogen-free, female CD-1 mice (weight, 25-35 g) were rendered neutropenic by intraperitoneal injection with 150 mg/kg cylcophosphamide (Sigma) four days before infection and 100 mg/kg cyclophosphamide 24 hours before infection. LB broth cultures inoculated from fresh ATCC25922 colonies and cells were grown to the log phase (OD600 of approximately 0.3) and diluted 1:1000 in LB broth. Thigh infections were produced by injecting 50 μl (approximately 10^6 CFUs) of diluted cultures into halothane-anesthetized mice. One group of mice was administrated inteperitoneal injection of 4,4-Fe-PcTs in conjunction with the second dose of cyclophosphamide (24 hours prior infection) (4,4-Fe-PcTs (pre)+CFX). Starting two hours after infection (defined as time zero), mice were administered subcutaneous injections of either 1 mg/kg ciprofloxacin alone (CFX) or co-treatment of 1 mg/kg ciprofloxacin with interperitoneal injection of 10 mg/kg 4,4-Fe-PcTs (4,4-Fe-PcTs+CFX and 4,4-Fe-PcTs (pre)+CFX) every 24 hours for 3 days. After 48 and 72 hours, three mice from each group were sacrificed, and their thighs removed and homogenized to determine the number of viable bacterial cells for both ciprofloxacin-sensitive and ciprofloxacin-resistant ATCC25922 cells. Serial dilutions of homogenates of the infected thigh were plated on LB agar (CFX Sensitive) and LB agar plates containing ciprofloxacin (40 nM) (CFX Resistant) to count viable cells for each of the three treatment groups.
# [4] = system: Staphylococcus aureus ATCC29213; assay: Antibiotic sensitivity assay (CFUs/ml), S. aureus; format: cell-based; settings: compound 25 μM; ciprofloxacin 6.5 μM
# Experimental: (§1) Bacterial cultures were diluted to 10^5 cells/mL in LB broth (ATCC25922) or MH broth (ATCC27853, ATCC29212, ATCC29213). Antibiotics and/or phthalocyanines were added at indicated concentrations and the culture was incubated at 37° C. Samples were collected at 0, 24, 48, and 72 hours and plated on LB agar (ATCC25922) or tryptic soy blood agar (ATCC27853, ATCC29212, ATCC29213) to determine CFUs/ml.
# (§2) To confirm that the activity of 4,4-Fe-PcTs was not specific to the gram-negative ATCC25922 E. coli, the ability of 4,4-Fe-PcTs to potentiate the activity of ciprofloxacin in another gram-negative (Pseudomonas aeruginosa ATCC27853) strain and two gram-positive (Staphylococcus aureus ATCC29213 and Enterococcus faecalis ATCC29212) strains was evaluated.
# [5] = system: Pseudomonas aeruginosa ATCC27853; assay: Antibiotic sensitivity assay (CFUs/ml), P. aeruginosa; format: cell-based; settings: compound 25 μM; ciprofloxacin 6.5 μM
# Experimental: as §1, §2
# T1 sequence (P0A7G6 whole entry): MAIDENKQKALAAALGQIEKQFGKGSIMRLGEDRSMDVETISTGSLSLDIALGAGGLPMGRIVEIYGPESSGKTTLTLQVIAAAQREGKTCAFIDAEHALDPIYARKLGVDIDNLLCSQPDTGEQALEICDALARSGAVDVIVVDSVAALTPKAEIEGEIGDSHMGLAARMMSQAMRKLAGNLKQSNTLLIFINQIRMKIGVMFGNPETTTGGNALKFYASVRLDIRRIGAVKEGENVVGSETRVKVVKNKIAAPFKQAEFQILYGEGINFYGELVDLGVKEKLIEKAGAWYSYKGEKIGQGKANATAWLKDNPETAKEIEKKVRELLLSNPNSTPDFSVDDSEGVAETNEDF
substance,measurement,setting,value
"iron (III) phthalocyanine-4,4′,4″,4′″-tetrasulfonic acid [4,4-Fe-PcTs]",inhibition of RecA ssDNA-binding activity,EcRecA [1],in the micromolar range
same,inhibition of DNA strand-exchange,EcRecA [2],inhibited
same,inhibition of RecA dsDNA-binding activity,EcRecA [3],in the micromolar range
same,toxicity to mouse bone marrow,mouse bone marrow cells,not toxic
same,effect on ciprofloxacin-induced in vitro filamentation,E. coli ATCC25922,reduced the ability of ciprofloxacin to induce
same,potentiation of ciprofloxacin by pretreatment versus co-treatment only,"ATCC25922 cells; 4,4-Fe-PcTs given 24 hours prior to infection plus co-treatment",potentiated the activity of ciprofloxacin more
same,ciprofloxacin-resistant cells in thigh,"ATCC25922 cells; mice co-treated with ciprofloxacin 1 mg/kg and 4,4-Fe-PcTs 10 mg/kg i.p. (with or without pretreatment)",no ciprofloxacin resistant cells were observed
same,potentiation of ciprofloxacin activity,[4],potentiated the activity of ciprofloxacin
same,potentiation of ciprofloxacin activity,[5],potentiated the activity of ciprofloxacin
